Experimental data: the supplement of paper PMC13207355

Tests used:
Details in all cases: exposure time: 72 h
FT3469 [1] = normal neural stem cell line; assay: phenotypic distance (Euclidean, principal components) from DMSO controls (arbitrary units); higher = stronger morphological change
E28 [2] = patient-derived glioblastoma stem cells of classical subtype; assay: as above
E34 [3] = patient-derived glioblastoma stem cells of proneural subtype; assay: as above
E31 [4] = patient-derived glioblastoma stem cells of proneural subtype; assay: as above
E21 [5] = patient-derived glioblastoma stem cells of mesenchymal subtype; assay: as above
E13 [6] = patient-derived glioblastoma stem cells of classical subtype; assay: as above
E57 [7] = patient-derived glioblastoma stem cells of mesenchymal subtype; assay: as above
FT3469 [8] = assay: surviving fraction (nuclei count normalised to DMSO); higher = more cells surviving (less toxic)
E28 [9] = assay: as above
E34 [10] = assay: as above
E31 [11] = assay: as above
E21 [12] = assay: as above
E13 [13] = assay: as above
E57 [14] = assay: as above
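Throughout, for phenotypic distance (Euclidean, principal components) from DMSO controls: cell Painting imaging in 384-well plates, CellProfiler features reduced to at least 20 principal components, Euclidean distance versus same-plate DMSO vehicle wells (0.1% v/v), median over six images per well.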
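Throughout, for surviving fraction (nuclei count normalised to DMSO): nuclei counted by high-content imaging of Hoechst-stained cells in laminin-coated 384-well plates, relative to 0.1% DMSO vehicle wells, with staurosporine as cell-death control.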

Question: What does the source list for COc1cc2ncnc(Nc3cccc(Br)c3)c2cc1OC?
Answer: phenotypic distance (FT3469 [1]; 4.1 nM): 0.686; phenotypic distance (FT3469 [1]; 12.3 nM): 0.611; phenotypic distance (FT3469 [1]; 37 nM): 0.986; phenotypic distance (FT3469 [1]; 111.1 nM): 0.512; phenotypic distance (FT3469 [1]; 333.3 nM): 0.982; phenotypic distance (FT3469 [1]; 1000 nM): 0.82; phenotypic distance (FT3469 [1]; 3000 nM): 1.29; phenotypic distance (E28 [2]; 4.1 nM): 0.79; phenotypic distance (E28 [2]; 12.3 nM): 0.832; phenotypic distance (E28 [2]; 37 nM): 0.627; phenotypic distance (E28 [2]; 111.1 nM): 1.04; phenotypic distance (E28 [2]; 333.3 nM): 1.13; phenotypic distance (E28 [2]; 1000 nM): 1.23; phenotypic distance (E28 [2]; 3000 nM): 0.966; phenotypic distance (E34 [3]; 4.1 nM): 0.973; phenotypic distance (E34 [3]; 12.3 nM): 0.835; phenotypic distance (E34 [3]; 37 nM): 1.15; phenotypic distance (E34 [3]; 111.1 nM): 1.03; phenotypic distance (E34 [3]; 333.3 nM): 1.14; phenotypic distance (E34 [3]; 1000 nM): 1.16; phenotypic distance (E34 [3]; 3000 nM): 2.27; phenotypic distance (E31 [4]; 4.1 nM): 0.794; phenotypic distance (E31 [4]; 12.3 nM): 0.613; phenotypic distance (E31 [4]; 37 nM): 0.892; phenotypic distance (E31 [4]; 111.1 nM): 0.732; phenotypic distance (E31 [4]; 333.3 nM): 1.01; phenotypic distance (E31 [4]; 1000 nM): 0.889; phenotypic distance (E31 [4]; 3000 nM): 1.3; phenotypic distance (E21 [5]; 4.1 nM): 0.609; phenotypic distance (E21 [5]; 12.3 nM): 1.01; phenotypic distance (E21 [5]; 37 nM): 0.8; phenotypic distance (E21 [5]; 111.1 nM): 3.3; phenotypic distance (E21 [5]; 333.3 nM): 0.937; phenotypic distance (E21 [5]; 1000 nM): 1.35; phenotypic distance (E21 [5]; 3000 nM): 5.43; phenotypic distance (E13 [6]; 4.1 nM): 3.14; phenotypic distance (E13 [6]; 12.3 nM): 0.603; phenotypic distance (E13 [6]; 37 nM): 1.05; phenotypic distance (E13 [6]; 111.1 nM): 4.7; phenotypic distance (E13 [6]; 333.3 nM): 3.33; phenotypic distance (E13 [6]; 1000 nM): 1.72; phenotypic distance (E13 [6]; 3000 nM): 1.27; phenotypic distance (E57 [7]; 4.1 nM): 0.927; phenotypic distance (E57 [7]; 12.3 nM): 1.19; phenotypic distance (E57 [7]; 37 nM): 1.4; phenotypic distance (E57 [7]; 111.1 nM): 1.37; phenotypic distance (E57 [7]; 333.3 nM): 1.71; phenotypic distance (E57 [7]; 1000 nM): 1.59; phenotypic distance (E57 [7]; 3000 nM): 1.98; surviving fraction (FT3469 [8]; 4.1 nM): 0.879; surviving fraction (FT3469 [8]; 12.3 nM): 0.996; surviving fraction (FT3469 [8]; 37 nM): 0.905; surviving fraction (FT3469 [8]; 111.1 nM): 0.858; surviving fraction (FT3469 [8]; 333.3 nM): 1.05; surviving fraction (FT3469 [8]; 1000 nM): 1.04; surviving fraction (FT3469 [8]; 3000 nM): 1.06; surviving fraction (E28 [9]; 4.1 nM): 1.07; surviving fraction (E28 [9]; 12.3 nM): 0.99; surviving fraction (E28 [9]; 37 nM): 0.899; surviving fraction (E28 [9]; 111.1 nM): 0.898; surviving fraction (E28 [9]; 333.3 nM): 0.963; surviving fraction (E28 [9]; 1000 nM): 0.944; surviving fraction (E28 [9]; 3000 nM): 0.918; surviving fraction (E34 [10]; 4.1 nM): 1.05; surviving fraction (E34 [10]; 12.3 nM): 0.884; surviving fraction (E34 [10]; 37 nM): 1.07; surviving fraction (E34 [10]; 111.1 nM): 1.12; surviving fraction (E34 [10]; 333.3 nM): 0.965; surviving fraction (E34 [10]; 1000 nM): 1.07; surviving fraction (E34 [10]; 3000 nM): 0.81; surviving fraction (E31 [11]; 4.1 nM): 1.05; surviving fraction (E31 [11]; 12.3 nM): 0.755; surviving fraction (E31 [11]; 37 nM): 0.826; surviving fraction (E31 [11]; 111.1 nM): 0.837; surviving fraction (E31 [11]; 333.3 nM): 0.877; surviving fraction (E31 [11]; 1000 nM): 0.767; surviving fraction (E31 [11]; 3000 nM): 0.97; surviving fraction (E21 [12]; 4.1 nM): 1.02; surviving fraction (E21 [12]; 12.3 nM): 0.921; surviving fraction (E21 [12]; 37 nM): 0.943; surviving fraction (E21 [12]; 111.1 nM): 0.867; surviving fraction (E21 [12]; 333.3 nM): 1.06; surviving fraction (E21 [12]; 1000 nM): 0.88; surviving fraction (E21 [12]; 3000 nM): 0.346; surviving fraction (E13 [13]; 4.1 nM): 0.967; surviving fraction (E13 [13]; 12.3 nM): 1.02; surviving fraction (E13 [13]; 37 nM): 0.972; surviving fraction (E13 [13]; 111.1 nM): 0.952; surviving fraction (E13 [13]; 333.3 nM): 1.14; surviving fraction (E13 [13]; 1000 nM): 1.04; surviving fraction (E13 [13]; 3000 nM): 0.903; surviving fraction (E57 [14]; 4.1 nM): 0.926; surviving fraction (E57 [14]; 12.3 nM): 0.974; surviving fraction (E57 [14]; 37 nM): 0.909; surviving fraction (E57 [14]; 111.1 nM): 0.83; surviving fraction (E57 [14]; 333.3 nM): 0.818; surviving fraction (E57 [14]; 1000 nM): 0.793; surviving fraction (E57 [14]; 3000 nM): 0.656
